Test results from patent US7319098B2, “1,3-dioxoisoindole derivatives having selective antagonism of T-type calcium channel” (Korea Institute of Science and Technology, priority 2006, dated 2008).

What was measured:
[1] = molecular target: T1, α1G T-type Ca2+ currents (Homo sapiens, UniProt O43497); assay: Electrophysiological whole cell patch clamp method in HEK293 cell; assay type: cell-based; conditions: peak current, step to −30 mV, read-out: Activity (IC50) against T-type calcium channel
T1 construct: expressed in transfected cells; host or cells: HEK293
T1 sequence (O43497 whole entry): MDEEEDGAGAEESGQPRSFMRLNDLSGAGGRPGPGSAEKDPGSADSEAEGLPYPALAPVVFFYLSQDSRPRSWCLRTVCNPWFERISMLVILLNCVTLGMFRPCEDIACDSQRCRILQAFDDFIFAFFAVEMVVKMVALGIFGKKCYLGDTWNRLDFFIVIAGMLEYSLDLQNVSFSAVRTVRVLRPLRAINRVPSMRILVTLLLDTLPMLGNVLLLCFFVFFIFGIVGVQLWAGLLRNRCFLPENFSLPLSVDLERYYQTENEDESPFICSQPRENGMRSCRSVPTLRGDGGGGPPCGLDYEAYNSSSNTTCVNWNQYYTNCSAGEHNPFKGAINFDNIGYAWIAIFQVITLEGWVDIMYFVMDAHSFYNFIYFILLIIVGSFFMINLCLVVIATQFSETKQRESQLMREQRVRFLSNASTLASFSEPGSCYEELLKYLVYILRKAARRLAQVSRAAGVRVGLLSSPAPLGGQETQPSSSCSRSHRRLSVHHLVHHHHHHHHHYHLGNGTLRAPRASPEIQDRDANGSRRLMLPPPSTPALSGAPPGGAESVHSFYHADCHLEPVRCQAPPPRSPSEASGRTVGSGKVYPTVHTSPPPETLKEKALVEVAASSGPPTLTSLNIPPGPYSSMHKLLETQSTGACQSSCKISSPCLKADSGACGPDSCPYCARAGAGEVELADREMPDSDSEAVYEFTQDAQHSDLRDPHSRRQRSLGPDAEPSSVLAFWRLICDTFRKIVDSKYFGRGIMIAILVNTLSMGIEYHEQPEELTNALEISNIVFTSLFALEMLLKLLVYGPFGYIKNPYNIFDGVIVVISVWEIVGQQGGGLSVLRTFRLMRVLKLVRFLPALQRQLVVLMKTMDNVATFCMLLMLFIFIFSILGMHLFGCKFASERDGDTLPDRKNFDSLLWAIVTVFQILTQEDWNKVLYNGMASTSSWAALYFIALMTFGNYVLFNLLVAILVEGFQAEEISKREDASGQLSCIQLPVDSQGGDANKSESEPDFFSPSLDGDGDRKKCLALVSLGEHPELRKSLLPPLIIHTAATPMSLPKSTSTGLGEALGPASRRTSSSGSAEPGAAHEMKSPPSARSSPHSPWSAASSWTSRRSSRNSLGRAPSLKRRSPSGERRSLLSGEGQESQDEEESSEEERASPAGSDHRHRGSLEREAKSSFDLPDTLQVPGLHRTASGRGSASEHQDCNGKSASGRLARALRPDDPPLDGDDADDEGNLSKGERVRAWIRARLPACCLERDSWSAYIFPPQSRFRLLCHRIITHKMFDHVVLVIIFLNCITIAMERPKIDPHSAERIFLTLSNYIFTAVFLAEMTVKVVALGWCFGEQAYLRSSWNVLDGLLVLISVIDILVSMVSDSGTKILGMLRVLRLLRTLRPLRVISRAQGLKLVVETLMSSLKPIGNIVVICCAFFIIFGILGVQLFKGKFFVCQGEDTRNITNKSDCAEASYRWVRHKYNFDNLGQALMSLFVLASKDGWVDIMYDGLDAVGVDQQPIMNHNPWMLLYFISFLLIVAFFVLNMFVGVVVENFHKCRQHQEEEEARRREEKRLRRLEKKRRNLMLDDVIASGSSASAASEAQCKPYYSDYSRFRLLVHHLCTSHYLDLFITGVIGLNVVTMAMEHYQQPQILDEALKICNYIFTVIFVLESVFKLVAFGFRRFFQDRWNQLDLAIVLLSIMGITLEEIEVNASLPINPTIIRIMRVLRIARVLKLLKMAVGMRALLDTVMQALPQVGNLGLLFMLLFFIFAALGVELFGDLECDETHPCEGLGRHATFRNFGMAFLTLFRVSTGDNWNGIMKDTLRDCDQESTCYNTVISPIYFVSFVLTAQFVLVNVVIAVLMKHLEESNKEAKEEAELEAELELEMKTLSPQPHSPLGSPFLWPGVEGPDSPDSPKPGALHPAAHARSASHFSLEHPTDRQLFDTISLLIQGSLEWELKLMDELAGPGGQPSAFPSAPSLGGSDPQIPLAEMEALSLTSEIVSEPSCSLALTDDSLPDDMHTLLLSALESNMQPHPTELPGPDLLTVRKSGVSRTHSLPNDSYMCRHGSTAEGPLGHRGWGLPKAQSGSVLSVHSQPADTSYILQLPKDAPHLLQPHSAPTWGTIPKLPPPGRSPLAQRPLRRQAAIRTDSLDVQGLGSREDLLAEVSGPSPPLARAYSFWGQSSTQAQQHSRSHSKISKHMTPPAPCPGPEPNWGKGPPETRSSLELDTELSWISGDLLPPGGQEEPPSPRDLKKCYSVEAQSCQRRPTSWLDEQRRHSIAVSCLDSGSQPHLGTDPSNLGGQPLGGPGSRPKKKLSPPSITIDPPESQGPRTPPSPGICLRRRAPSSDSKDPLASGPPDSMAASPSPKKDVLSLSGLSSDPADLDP
Description: Meanwhile, the antagonistic activity of the novel compound of Formula (1) herein against T-type calcium channel was tested as described below. The synthesized compounds were tested for the activity against T-type calcium channel with FDSS6000. […] For the recordings of α1G T-type Ca^2+ currents, the standard whole-cell patch-clamp method was utilized as previously described. Briefly, borosilicate glass electrodes with a resistance of 3˜4 MΩ were pulled and filled with the internal solution contained (in mM): 130 KCl, 11 EGTA, 5 Mg-ATP, and 10 HEPES (pH 7.4). […] The molar concentrations of test compounds required to produce 50% inhibition of peak currents (IC50) were determined from fitting raw data into dose-response curves. The current recordings were obtained using an EPC-9 amplifier and Pulse/Pulsefit software program (HEKA, Germany).

[2] = molecular target: T2, α1G T-type Ca2+ channels (Homo sapiens, UniProt O43497); assay: Screening of activity against T-type calcium channel with FDSS6000 (fluorescence, KCl-induced [Ca2+]i increase); assay type: cell-based; conditions: HEK293 cells expressing α1G and Kir2.1, read-out: Inhibitory effect (%) of T-type calcium channel, Inhibition (%); for inhibition at 10 µM: NA: Not Active
T2 construct: expressed in transfected cells; host or cells: HEK293 cells stably expressing α1G and Kir2.1
T2 sequence (O43497 whole entry): as above
Method in brief: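 HEK293 cells stably expressing α1G plus Kir2.1 were loaded with 5 μM fluo3/AM for 60 min at room temperature in HEPES buffer pH 7.4. In buffer with 10 mM CaCl2, cells were pretreated with compound, then depolarized with 70 mM KCl. The rise in [Ca2+]i was measured by fluorescence […].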

[3] = spinal nerve ligation animal model; cited from earlier work

IC50 [1] [nM] | inhibition at 10 µM [2] [%] | inhibition at 100 µM [2] [%] | SMILES | effect on mechanic and thermal induction (neurogenic pain) [3]
1520 ± 190 | 50.9 | – | CC1CCCCN1CCCNC(=O)c1ccc2c(c1)C(=O)N(Cc1ccccc1Cl)C2=O (stereo not shown) [Compound 76, 1-(3-{[2-(2-chloro-benzyl)-1,3-dioxo-2,3-dihydro-1H-isoindol-5-carbonyl]-amino}-propyl)-2-methyl-piperidinium chloride] | –
1810 ± 460 | 46.2 | – | CC1CCCCN1CCCNC(=O)c1ccc2c(c1)C(=O)N(Cc1cccc(Cl)c1)C2=O (stereo not shown) [Compound 82, 1-(3-{[2-(3-chloro-benzyl)-1,3-dioxo-2,3-dihydro-1H-isoindol-5-carbonyl]-amino}-propyl)-2-methyl-piperidinium chloride] | –
960 ± 70 | 47.2 | – | O=C(NCCN1CCCCC1)c1ccc2c(c1)C(=O)N(Cc1ccc(Cl)cc1)C2=O [Compound 87, 1-(2-{[2-(4-chloro-benzyl)-1,3-dioxo-2,3-dihydro-1H-isoindol-5-carbonyl]-amino}-ethyl)-piperidinium chloride] | –
930 ± 60 | 46.6 | – | CC1CCCCN1CCCNC(=O)c1ccc2c(c1)C(=O)N(Cc1ccc(Cl)cc1)C2=O (stereo not shown) [Compound 88, 1-(3-{[2-(4-chloro-benzyl)-1,3-dioxo-2,3-dihydro-1H-isoindol-5-carbonyl]-amino}-propyl)-2-methyl-piperidinium chloride] | –
8280 ± 2950 | – | 90.4 | Cc1ccccc1CN1C(=O)c2ccc(C(=O)NCCN3CCCCC3)cc2C1=O [Compound 93, 1-(2-{[2-(2-methyl-benzyl)-1,3-dioxo-2,3-dihydro-1H-isoindol-5-carbonyl]-amino}-ethyl)-piperidinium chloride] | –
2070 ± 450 | – | 84.8 | Cc1ccccc1CN1C(=O)c2ccc(C(=O)NCCCN3CCCCC3C)cc2C1=O (stereo not shown) [Compound 94, 2-methyl-1-(3-{[2-(2-methyl-benzyl)-1,3-dioxo-2,3-dihydro-1H-isoindol-5-carbonyl]-amino}-propyl)-piperidinium chloride] | –
1930 ± 230 | – | 89.7 | Cc1cccc(CN2C(=O)c3ccc(C(=O)NCCN4CCCCC4)cc3C2=O)c1 [Compound 99, 1-(2-{[2-(3-methyl-benzyl)-1,3-dioxo-2,3-dihydro-1H-isoindol-5-carbonyl]-amino}-ethyl)-piperidinium chloride] | –
1840 ± 210 | 48.4 | – | Cc1cccc(CN2C(=O)c3ccc(C(=O)NCCCN4CCCCC4C)cc3C2=O)c1 (stereo not shown) [Compound 100, 2-methyl-1-(3-{[2-(3-methyl-benzyl)-1,3-dioxo-2,3-dihydro-1H-isoindol-5-carbonyl]-amino}-propyl)-piperidinium chloride] | –
– | – | – | CCC1(C)CC(=O)NC1=O (stereo not shown) [Ethosuximide] | dosage-dependent reversed mechanic and thermal induction
– | 75.1 | – | COCC(=O)O[C@]1(CCN(C)CCCc2nc3ccccc3[nH]2)CCc2cc(F)ccc2[C@@H]1C(C)C [Mibefradil, reference compound] | dosage-dependent reversed mechanic and thermal induction
